Experimental data reported in PubChem BioAssay (NCI).
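These data come from cells grown in 96-well plates and exposed to compound for 48 hours at five concentrations. Definition used: TGI = concentration required for complete inhibition of growth.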

How the values were obtained:
Test in all cases: NCI tumour cell line growth inhibition, 48 h
[1] = system: UACC-257 melanoma
[2] = system: UO-31 renal
[3] = system: BT-549 breast
[4] = system: HL-60(TB) leukemia
[5] = system: UACC-62 melanoma
[6] = system: COLO 205 colon
[7] = system: NCI-H460 lung
[8] = system: SK-MEL-28 melanoma
[9] = system: SW-620 colon
[10] = system: T-47D breast
[11] = system: SK-MEL-5 melanoma
[12] = system: NCI-H226 lung
[13] = system: K-562 leukemia
[14] = system: SF-268 CNS
[15] = system: PC-3 prostate
[16] = system: HOP-92 NSCLC
[17] = system: CCRF-CEM leukemia
[18] = system: SK-MEL-2 melanoma

Row | SMILES | TGI [1] [µM] | TGI [2] [µM] | TGI [3] [µM] | TGI [4] [µM] | TGI [5] [µM] | TGI [6] [µM] | TGI [7] [µM] | TGI [8] [µM] | TGI [9] [µM] | TGI [10] [µM] | TGI [11] [µM] | TGI [12] [µM] | TGI [13] [µM] | TGI [14] [µM] | TGI [15] [µM] | TGI [16] [µM] | TGI [17] [µM] | TGI [18] [µM]
1 | Cc1cc(S(=O)(=O)NC2=NC(c3ccccc3)c3ccccc3N2)c(S)cc1Cl (stereo not given) | > 100 | 46.5 | > 100 | > 100 | > 100 | > 100 | > 100 | > 100 | > 100 | > 100 | > 100 | > 100 | > 100 | > 100 | 80.9 | > 100 | > 100 | –
2 | CC[C@H](C)C1=C(O)[N@+]2([O-])Oc3ccc(-c4c(O)c(O)c(-c5ccc(OC(C)=O)cc5)c(OC(C)=O)c4OC(C)=O)cc3O[C@]2([C@@H](C)CC)C(=O)N1O | > 50 | > 50 | > 50 | > 50 | > 50 | > 50 | > 50 | > 50 | 23.6 | > 50 | > 50 | – | 31.5 | > 50 | > 50 | 45.8 | 23.8 | > 50
3 | OCc1ccc2c(c1)CC1(C2)Cc2cc3c(cc2C1)CCC3 | > 100 | > 100 | > 100 | > 100 | > 72.2 | – | > 100 | > 100 | > 31.6 | > 100 | > 31.2 | > 100 | > 100 | > 100 | > 34.6 | > 74 | > 100 | > 100
4 | CC(C)(C)OC(=O)NC(Cc1ccc(OCc2ccccc2)cn1)C(=O)NCc1ccccc1 (stereo not given) | 34.5 | 82.9 | 48.6 | 33.7 | 32.5 | 30.8 | 69.7 | > 100 | > 100 | 56.5 | 26 | – | > 100 | 75 | 53 | 60.4 | 43.5 | 35.7
5 | O=C1CSC(c2ccc(Cl)cc2)N1c1ccc(-c2ccc(-n3c(-c4ccccc4)nc4ccccc4c3=O)cc2)cc1 (stereo not given) | > 100 | 59.5 | > 100 | > 100 | > 100 | > 100 | > 100 | > 100 | > 100 | 52.1 | > 100 | – | > 100 | > 100 | > 100 | 97.9 | > 100 | > 100
6 | COC(=O)[C@@H]1C2OC(C)(C)OC2CN1C(=O)OCc1ccccc1 (stereo not given in full) | > 100 | > 100 | > 100 | > 100 | > 100 | > 100 | > 100 | > 100 | > 100 | > 100 | > 100 | > 100 | > 100 | > 100 | > 100 | > 100 | – | > 100
7 | CCO/C=N/C1=C(C#N)C(c2ccc(Cl)cc2)c2c(-c3ccccc3)nn(-c3ccccc3)c2O1 (stereo not given) | 35.9 | 31.9 | 31.5 | > 100 | 33.5 | > 100 | 46 | 39.5 | > 66.5 | > 100 | – | 46.9 | > 100 | 29.9 | 22.7 | 29.1 | > 100 | 34.8
8 | CN(C)/C=C(\C(=O)c1ccccc1)n1nc(-c2ccccc2)cc1-c1ccccc1 | > 10 | – | > 10 | > 10 | > 10 | > 10 | > 10 | > 10 | > 10 | > 10 | > 10 | > 10 | – | > 10 | > 10 | > 10 | > 10 | > 10
9 | CCOC(=O)CCC(NC(=O)c1ccc(Nc2nc3ccccc3n3cccc23)cc1)C(=O)OCC (stereo not given) | 72.5 | > 100 | 77.3 | > 100 | 53.6 | > 100 | > 100 | > 100 | > 100 | 1.99 | > 100 | – | > 100 | > 100 | 34.5 | > 100 | > 100 | 39.7
10 | COc1ccc(N2C(=O)c3cccnc3S2(=O)=O)cc1 | > 100 | > 100 | > 100 | > 100 | > 100 | > 100 | > 100 | > 100 | > 100 | > 100 | – | > 100 | > 100 | > 100 | > 100 | > 100 | > 100 | > 100
11 | CC1(c2nc3ccccc3[nH]2)CCC(C(N)=O)C(C)(C)O1 (stereo not given) | > 100 | > 100 | > 100 | > 100 | > 100 | > 100 | – | > 100 | > 100 | > 100 | > 100 | > 100 | > 100 | > 100 | > 100 | > 100 | > 100 | > 100
12 | CC(=O)c1nc2ccccc2n1CC(=O)c1ccc(Cl)cc1 | > 100 | > 100 | > 100 | > 100 | 27.8 | 53 | 22.5 | > 100 | 44 | > 100 | – | > 100 | > 100 | > 100 | 60.1 | 22.5 | > 100 | 78.1
13 | O=C1C[C@@H](Sc2ccccc2)C2(OCCO2)[C@H]2ON3CCC[C@@H]3[C@@H]12 | 29.3 | 4.12 | 18.9 | 6.08 | 24.3 | 6.32 | 18.7 | 23 | 13.5 | 8.75 | – | 34.5 | 13.8 | 12.1 | 20.6 | 11.4 | 5.72 | 13.3
